Source: article PMC6478823, “A suite of phenotypic assays to ensure pipeline diversity when prioritizing drug-like Cryptosporidium growth inhibitors” (Nature Communications, 2019)

Legend:
[1] = test system: HCT-8 cell DNA replication; experiment: Host cell DNA replication (EdU labeling); type: cell-based, human; details: 10 mM, positive control
C. parvum = experiment: DNA replication assay (EdU incorporation); type: cell-based, Cryptosporidium parvum; details: 10 mM, positive control
Source text: Following cell invasion, Cryptosporidium trophozoites grow and multiply to give rise to multinucleated type I meronts (Fig. 3a). The thymidine analog 5-ethynyl-2′-deoxyuridine (EdU) is efficiently incorporated into newly synthesized DNA, and can be detected using click chemistry. We used EdU to measure parasite intracellular DNA replication, as a surrogate for the more complex phenotype of intracellular growth and division. The approach for differentially labeling newly synthesized parasite DNA compared to host cell DNA was to take advantage of the fact that C. parvum replicates more quickly than the nearly confluent host cells. Thus, by adding EdU shortly before egress, it was possible to preferentially label replicating parasites (Fig. 3b, c). DNA staining with Hoechst labeled all of the host and parasite DNA, making it challenging to visualize and quantify parasite DNA. A simple DNA stain would also not distinguish pre-existing DNA from newly synthesized DNA (Fig. 3c). In contrast, EdU labeling only occurred with incorporation into newly synthesized DNA. Incorporated EdU was then easily stained for immunofluorescence and labeled parasites were quantified using high-content microscopy and an NIH ImageJ macro (Fig. 3c, DMSO condition). The […] hydroxyurea (10 mM), a known inhibitor of DNA replication, was used as a positive control for assay validation. […] Compounds with activity in this assay cannot be concluded to specifically target DNA replication, which is a complex phenotype.
Confluent HCT-8 cell monolayers in glass bottom plates were infected with C. parvum, and compounds were added at EC90 following invasion. At 9 h post-infection, 10 µM EdU was added, followed by incubation for another 2 h, and then washing, fixing, and staining for microscopy. […] 40 × dry objective (NA = 0.7); scale = 5 µm. Arrows indicate selected parasites with EdU-labeled DNA. d Quantification of EdU incorporation. […] Data are mean and SD of 2–5 biological replicates.
After incubation of cells with EdU for 2 h, cells were washed 3 times with PBS-D-gal and then fixed with PBS containing 4% PFA. Cells were then permeabilized and stained for EdU using the Click-iT® assay kit (Thermo Fisher Scientific, catalog# C10340) as per the manufacturer’s instructions. Cells were then imaged by focusing on parasites (note that the host cell nuclei are in a different focal plane) using a 40 × dry objective (0.7 NA) and EdU, and lectin numbers quantified using ImageJ software and the custom macro in Supplementary Method 1.

NC(=O)NO [hydroxyurea]
effect on HCT-8 cell DNA replication [1]: blocked both parasite and HCT-8 cell DNA replication
effect on parasite DNA replication (C. parvum): blocked both parasite and HCT-8 cell DNA replication
